The target in one data set is T1, UGT1A6 (Homo sapiens, UniProt P19224).
T1 sequence (P19224 27-532): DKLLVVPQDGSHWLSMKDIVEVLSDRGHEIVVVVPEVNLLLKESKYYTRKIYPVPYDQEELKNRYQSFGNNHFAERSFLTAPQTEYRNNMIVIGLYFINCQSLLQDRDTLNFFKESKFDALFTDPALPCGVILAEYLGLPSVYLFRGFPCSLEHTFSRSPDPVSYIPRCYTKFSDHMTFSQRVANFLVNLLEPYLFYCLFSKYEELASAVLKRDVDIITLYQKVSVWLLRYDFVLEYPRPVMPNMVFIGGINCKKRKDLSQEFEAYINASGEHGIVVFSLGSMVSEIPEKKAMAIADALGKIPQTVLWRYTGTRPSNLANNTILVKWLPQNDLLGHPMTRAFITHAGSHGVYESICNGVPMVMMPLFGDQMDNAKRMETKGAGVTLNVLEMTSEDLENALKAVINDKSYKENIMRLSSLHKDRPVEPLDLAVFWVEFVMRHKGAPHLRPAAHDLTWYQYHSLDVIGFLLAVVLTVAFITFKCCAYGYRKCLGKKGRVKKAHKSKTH
In words: UGT1A6 inhibition in HLM (N-Acetyl serotonin glucuronidation). Format: in vitro ADME. Also on record: tissue XenoTech LLC; host or cells: pooled human liver microsomes. The settings on record: for IC50: UGT1A6, N-Acetyl serotonin glucuronide formation in HLM; for inhibition at 100 µM: human, human liver microsomes (HLM), probe N-Acetyl serotonin, HLM, 100 μM test compound. As to the method: (§1) To assess drug-drug interactions (DDIs) potential caused by ticagrelor and ticagrelor-O-Glu through the inhibition of the major human UGTs enzymes, selective UGT probe substrates were co-incubated with ticagrelor or ticagrelor-O-Glu in HLM. The formation of metabolites, SN-38 glucuronide, chenodeoxycholic acid 24-acyl-β-D-glucuronide, trifluoperazine N-glucuronide, N-Acetyl serotonin glucuronide, mycophenolic acid glucuronide and 3′-azide-3′-deoxythymidine β-D-glucuronide, which could reflect the enzyme activities of UGT1A1, UGT1A3, UGT1A4, UGT1A6, UGT1A9 and UGT2B7, respectively, were quantified using LC-MS/MS. Three different concentrations of ticagrelor or ticagrelor-O-Glu (1, 10 and 100 μM) were added to the incubation system in the presence of selective UGT probe substrates (SN-38, chenodeoxycholic acid, trifluoperazine, N-Acetyl serotonin, mycophenolic acid and 3′-azide-3′-deoxythymidine), respectively. The assays were performed as described above. The control was treated with a vehicle solvent only. A triple determination was performed.
(§2) The percent inhibition relative to the control was calculated to indicate the UGTs or CYPs inhibition. For inhibition exceeding 50% of the control activity, nonlinear regression analysis was used to estimate the IC50 values using the GraphPad Prism 6 (GraphPad Software Inc., CA, United States).
(In general: Microsomes from liver hold many membrane-bound enzymes, among them those of drug oxidation.)

The target of a further data set is T2, UGT1A1 (Homo sapiens, UniProt P22309).
T2 sequence (P22309 26-533): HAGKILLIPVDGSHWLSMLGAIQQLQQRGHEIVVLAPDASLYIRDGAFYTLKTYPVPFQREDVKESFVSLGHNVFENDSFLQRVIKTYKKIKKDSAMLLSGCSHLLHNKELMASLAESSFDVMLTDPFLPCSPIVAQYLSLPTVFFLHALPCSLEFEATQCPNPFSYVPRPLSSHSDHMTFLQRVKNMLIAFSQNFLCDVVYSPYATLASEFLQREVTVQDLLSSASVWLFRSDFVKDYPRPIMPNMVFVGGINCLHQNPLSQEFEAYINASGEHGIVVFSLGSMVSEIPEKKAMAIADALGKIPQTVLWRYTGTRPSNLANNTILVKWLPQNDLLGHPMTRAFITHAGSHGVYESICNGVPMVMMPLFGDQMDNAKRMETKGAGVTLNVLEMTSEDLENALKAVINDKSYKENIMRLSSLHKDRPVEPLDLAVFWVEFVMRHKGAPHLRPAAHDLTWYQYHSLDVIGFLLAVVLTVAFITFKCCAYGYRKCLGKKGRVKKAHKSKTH
In words: UGT1A1 inhibition in HLM (SN-38 glucuronidation). Conditions: for IC50: UGT1A1, SN-38 glucuronide formation in HLM. Also on record: tissue XenoTech LLC; host or cells: pooled human liver microsomes. The class given is in vitro ADME. As to the method: as §1, §2

On the set-up of data set [1]: method as in Husted et al., 2006. The settings on record: humans, 100 mg b.i.d.; ref Husted et al., 2006; cited from earlier work.
Data set [2] relates to human intestinal microsomes (HIM). The data set can be described thus: Ticagrelor glucuronidation kinetics in pooled HIM. Format: in vitro ADME. The method, then:
Ticagrelor glucuronidation was investigated in an in vitro incubation system by using HLM, HIM, and recombinant human UGTs. The incubation system consisted of enzyme sources (HLM, HIM, or human recombinant UGTs), various concentrations of ticagrelor (dissolved in 50% methanol, 1% v/v, 1, 2, 5, 10, 20, 50, 100, 200, 500 μM of final concentration), alamethicin (50 μg/mg protein), 5 mM MgCl2, 100 mM tris-HCL buffer (pH 7.4), and 5 mM UDPGA in a total volume of 100 μl. Alamethicin is a pore-forming polypeptide used to activate UGTs in HLM and HIM ([Fisher et al., 2000]). Preliminary studies were conducted to determine the optimal protein concentrations and incubation times. Linear conditions of ticagrelor-O-Glu formation from ticagrelor, i.e., HLM, 0.2 mg of protein/ml and 60 min, HIM, 0.2 mg of protein/ml and 60 min, and recombinant human UGTs, 0.2 mg of protein/ml and 60 min were selected. The incubation mixture without UDPGA was placed on ice for 15 min to activate UGT by alamethicin. After pre-incubation for 5 min at 37°C, the reactions were started by the addition of UDPGA. After another 60 min of incubation at 37°C, the reaction was terminated by adding 100 μl of acetonitrile containing internal standard (diazepam). The mixture vortexed for 2 min and then centrifuged at 14,000 rpm for 10 min at 4°C. The resulting supernatant was injected into a liquid chromatography tandem mass spectrometry (LC-MS/MS, Applied Biosystems/MDS Sciex, Foster City, CA) system for the detection of ticagrelor-O-Glu.
Kinetic analyses were performed using the mean values of triplicate determinations with either pooled HLM, HIM, or recombinant human UGTs. All data were analyzed by nonlinear regression analysis using the GraphPad Prism 6 (GraphPad Software Inc., CA, United States). Michaelis-Menten kinetics (Eq. 1) or substrate inhibition kinetics (Eq. 2) ([Houston and Kenworthy, 2000]) were tested to determine the optimal model for describing the data. […] Intrinsic clearance (CLint) was calculated by dividing Vmax by Km.

Consider `CCCSc1nc(N[C@@H]2C[C@H]2c2ccc(F)c(F)c2)c2nnn([C@@H]3C[C@H](OCCO[C@@H]4O[C@H](C(=O)O)[C@@H](O)[C@H](O)[C@H]4O)[C@@H](O)[C@H]3O)c2n1` [Ticagrelor-O-Glu, ticagrelor-O-glucuronide], for which, on UGT1A6, the IC50 was greater than 100 µM and the inhibition at 100 µM turned out to be 28.5%. The “inhibitory effect on UGT1A1” value against UGT1A1 (HLM, concentration up to 100 μM) is reported as “no significant inhibitory effects”. This compound also gave an IC50 against UGT1A1 greater than 100 µM.
Regarding `CCCSc1nc(N[C@@H]2C[C@H]2c2ccc(F)c(F)c2)c2nnn([C@@H]3C[C@H](OCCO)[C@@H](O)[C@H]3O)c2n1` [Ticagrelor], in data set [1], the “steady-state maximal plasma concentration (Cmax)” value was 810 ng/mL. In addition, the results for the IC50 on UGT1A6 and against UGT1A1 were greater than 100 µM and roughly 100 µM, respectively. The inhibition at 100 µM against UGT1A6 was found to be 12.7%; on UGT1A1 (human, human liver microsomes (HLM), probe SN-38, HLM, 100 μM test compound) it was 56.8%. This compound showed a Ksi in data set [2] (pooled HIM) of 292.9 µM. Moreover, in data set [2] (pooled HIM), the Vmax is reported as 0.90 pmol·min^−1·mg protein^−1. For the same compound, the Km in data set [2] (pooled HIM 0.2 mg protein/ml, 60 min, substrate inhibition kinetics) amounted to 2.52 µM.

The IC50 is the point on the concentration scale where inhibition reaches its midpoint. Low readings indicate higher potency, high ones lower potency. One may read the inhibition as the share of the control response that was lost under treatment. Low values mean a response near the control, high ones a response far below the control. For orientation: Km means the concentration of substrate that gives half-maximal velocity.

The record behind these values is article PMC8552062, “Contributions of UDP-Glucuronosyltransferases to Human Hepatic and Intestinal Metabolism of Ticagrelor and Inhibition of UGTs and Cytochrome P450 Enzymes by Ticagrelor and its Glucuronidated Metabolite” (Frontiers in Pharmacology, 2021).
